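All cell lines were grown in 96-well plates and treated with compound for 48 hours. GI50 marks 50% less growth.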 Active and inactive are the calls of the source. Rule as the data show it: active = GI50 up to about 1.1 µM and inactive = higher.
How the values were obtained:
Assay in all cases: NCI-60 cell line screen, 48 h
786-0 = test system: 786-0
A549 = test system: A549
ACHN = test system: ACHN
CAKI-1 = test system: CAKI-1
CCRF-CEM = test system: CCRF-CEM
COLO 205 = test system: COLO 205
DLD-1 = test system: DLD-1
DMS-114 = test system: DMS-114
DMS-273 = test system: DMS-273
EKVX = test system: EKVX
HCC 2998 = test system: HCC 2998
HCT-116 = test system: HCT-116
HCT-15 = test system: HCT-15
HL-60 = test system: HL-60
HOP-18 = test system: HOP-18
HOP-62 = test system: HOP-62
HT-29 = test system: HT-29
IGROV-1 = test system: IGROV-1
K562 = test system: K562
KM-20L2 = test system: KM-20L2
KM12 = test system: KM12
LOX IMVI = test system: LOX IMVI
LXFL 529 = test system: LXFL 529
M14 = test system: M14
M19-MEL = test system: M19-MEL
MOLT-4 = test system: MOLT-4
Malme-3M = test system: Malme-3M
NCI-H226 = test system: NCI-H226
NCI-H23 = test system: NCI-H23
NCI-H460 = test system: NCI-H460
NCI-H522 = test system: NCI-H522
OVCAR-3 = test system: OVCAR-3
OVCAR-4 = test system: OVCAR-4
OVCAR-5 = test system: OVCAR-5
OVCAR-8 = test system: OVCAR-8
RPMI-8226 = test system: RPMI-8226
RXF 393 = test system: RXF 393
SF-268 = test system: SF-268
SF-295 = test system: SF-295
SF-539 = test system: SF-539
SK-MEL-28 = test system: SK-MEL-28
SK-MEL-2 = test system: SK-MEL-2
SK-MEL-5 = test system: SK-MEL-5
SK-OV-3 = test system: SK-OV-3
SN12C = test system: SN12C
SNB-19 = test system: SNB-19
SNB-75 = test system: SNB-75
SNB-78 = test system: SNB-78
SR = test system: SR
SW-620 = test system: SW-620
TK-10 = test system: TK-10
U-251 = test system: U-251
UACC-257 = test system: UACC-257
UACC-62 = test system: UACC-62
UO-31 = test system: UO-31
XF498 = test system: XF498
A498 = test system: A498

SMILES: C[Si](C)(c1ccccc1)C1CC(=O)CC(=O)C1
- GI50 (786-0): 21.4 µM (inactive)
- GI50 (A549): > 100 µM (inactive)
- GI50 (ACHN): > 100 µM (inactive)
- GI50 (CAKI-1): > 100 µM (inactive)
- GI50 (CCRF-CEM): 38.4 µM (inactive)
- GI50 (COLO 205): > 100 µM (inactive)
- GI50 (DLD-1): > 100 µM (inactive)
- GI50 (DMS-114): > 100 µM (inactive)
- GI50 (DMS-273): > 100 µM (inactive)
- GI50 (EKVX): > 100 µM (inactive)
- GI50 (HCC 2998): > 100 µM (inactive)
- GI50 (HCT-116): > 100 µM (inactive)
- GI50 (HCT-15): > 100 µM
- GI50 (HL-60): 21.3 µM (inactive)
- GI50 (HOP-18): > 100 µM (inactive)
- GI50 (HOP-62): > 100 µM (inactive)
- GI50 (HT-29): > 100 µM (inactive)
- GI50 (IGROV-1): 22.7 µM (inactive)
- GI50 (K562): > 100 µM (inactive)
- GI50 (KM-20L2): > 100 µM (inactive)
- GI50 (KM12): > 100 µM (inactive)
- GI50 (LOX IMVI): 20.8 µM (inactive)
- GI50 (LXFL 529): > 100 µM (inactive)
- GI50 (M14): > 100 µM (inactive)
- GI50 (M19-MEL): > 100 µM (inactive)
- GI50 (MOLT-4): > 100 µM (inactive)
- GI50 (Malme-3M): > 100 µM (inactive)
- GI50 (NCI-H226): > 100 µM (inactive)
- GI50 (NCI-H23): > 100 µM (inactive)
- GI50 (NCI-H460): > 100 µM (inactive)
- GI50 (NCI-H522): 26.1 µM (inactive)
- GI50 (OVCAR-3): > 100 µM (inactive)
- GI50 (OVCAR-4): > 100 µM (inactive)
- GI50 (OVCAR-5): > 100 µM (inactive)
- GI50 (OVCAR-8): > 100 µM (inactive)
- GI50 (RPMI-8226): > 100 µM (inactive)
- GI50 (RXF 393): 37.3 µM (inactive)
- GI50 (SF-268): > 100 µM (inactive)
- GI50 (SF-295): > 100 µM (inactive)
- GI50 (SF-539): 19.3 µM (inactive)
- GI50 (SK-MEL-28): > 100 µM (inactive)
- GI50 (SK-MEL-2): > 100 µM (inactive)
- GI50 (SK-MEL-5): > 100 µM (inactive)
- GI50 (SK-OV-3): > 100 µM (inactive)
- GI50 (SN12C): > 100 µM (inactive)
- GI50 (SNB-19): > 100 µM (inactive)
- GI50 (SNB-75): > 100 µM (inactive)
- GI50 (SNB-78): > 100 µM (inactive)
- GI50 (SR): > 100 µM (inactive)
- GI50 (SW-620): > 100 µM (inactive)
- GI50 (TK-10): > 100 µM (inactive)
- GI50 (U-251): > 100 µM (inactive)
- GI50 (UACC-257): > 100 µM (inactive)
- GI50 (UACC-62): > 100 µM (inactive)
- GI50 (UO-31): 19.9 µM (inactive)
- GI50 (XF498): > 100 µM (inactive)

SMILES: Cc1cc2c(cc1C)NC(=O)C(NC(=O)/C=C/c1ccccc1)C=N2 (stereo not given)
- GI50 (786-0): 30.3 µM (inactive)
- GI50 (A498): 37.2 µM (inactive)
- GI50 (A549): 30.7 µM (inactive)
- GI50 (ACHN): 41.9 µM (inactive)
- GI50 (CAKI-1): 31.3 µM (inactive)
- GI50 (CCRF-CEM): 3.56 µM (inactive)
- GI50 (COLO 205): 18.1 µM (inactive)
- GI50 (DLD-1): 28.2 µM (inactive)
- GI50 (DMS-114): 12.3 µM (inactive)
- GI50 (DMS-273): 29 µM (inactive)
- GI50 (EKVX): > 100 µM (inactive)
- GI50 (HCC 2998): 48.6 µM (inactive)
- GI50 (HCT-116): 20.8 µM (inactive)
- GI50 (HCT-15): 17.7 µM
- GI50 (HL-60): 21.9 µM (inactive)
- GI50 (HOP-18): 37.5 µM (inactive)
- GI50 (HOP-62): > 100 µM (inactive)
- GI50 (IGROV-1): 34.8 µM (inactive)
- GI50 (K562): 22.5 µM (inactive)
- GI50 (KM-20L2): 45.3 µM (inactive)
- GI50 (KM12): 19.5 µM (inactive)
- GI50 (LOX IMVI): 22.7 µM (inactive)
- GI50 (LXFL 529): 27.9 µM (inactive)
- GI50 (M14): 34 µM (inactive)
- GI50 (M19-MEL): 33.3 µM (inactive)
- GI50 (MOLT-4): 20.7 µM (inactive)
- GI50 (Malme-3M): 35.9 µM (inactive)
- GI50 (NCI-H226): 95.3 µM (inactive)
- GI50 (NCI-H460): 30.8 µM (inactive)
- GI50 (NCI-H522): 16.3 µM (inactive)
- GI50 (OVCAR-3): 20.1 µM (inactive)
- GI50 (OVCAR-4): 38.9 µM (inactive)
- GI50 (OVCAR-5): > 100 µM (inactive)
- GI50 (OVCAR-8): 38.2 µM (inactive)
- GI50 (RPMI-8226): 25.5 µM (inactive)
- GI50 (RXF 393): 16.1 µM (inactive)
- GI50 (SF-268): 29.9 µM (inactive)
- GI50 (SF-295): 50.8 µM (inactive)
- GI50 (SF-539): 24.8 µM (inactive)
- GI50 (SK-MEL-28): 72.3 µM (inactive)
- GI50 (SK-MEL-2): 24.5 µM (inactive)
- GI50 (SK-MEL-5): 29.9 µM (inactive)
- GI50 (SK-OV-3): 74.8 µM (inactive)
- GI50 (SN12C): 38.8 µM (inactive)
- GI50 (SNB-19): 64.3 µM (inactive)
- GI50 (SNB-75): 44.1 µM (inactive)
- GI50 (SNB-78): 66.7 µM (inactive)
- GI50 (SR): 20.8 µM (inactive)
- GI50 (SW-620): 4.73 µM (inactive)
- GI50 (TK-10): 50.6 µM (inactive)
- GI50 (U-251): 23.9 µM (inactive)
- GI50 (UACC-257): 24.3 µM (inactive)
- GI50 (UACC-62): 34.8 µM (inactive)
- GI50 (UO-31): 29.6 µM (inactive)
- GI50 (XF498): 28 µM (inactive)

SMILES: COc1ccc(C(=O)C/C(=N/NC(N)=S)C(=O)Nc2ccccc2)cc1
- GI50 (786-0): > 100 µM (inactive)
- GI50 (A498): > 100 µM (inactive)
- GI50 (A549): > 100 µM (inactive)
- GI50 (ACHN): > 100 µM (inactive)
- GI50 (CAKI-1): > 100 µM (inactive)
- GI50 (CCRF-CEM): > 100 µM (inactive)
- GI50 (COLO 205): > 100 µM (inactive)
- GI50 (DLD-1): > 100 µM (inactive)
- GI50 (DMS-114): > 100 µM (inactive)
- GI50 (DMS-273): > 100 µM (inactive)
- GI50 (EKVX): > 100 µM (inactive)
- GI50 (HCC 2998): > 100 µM (inactive)
- GI50 (HCT-116): > 100 µM (inactive)
- GI50 (HCT-15): > 100 µM
- GI50 (HL-60): > 100 µM (inactive)
- GI50 (HOP-18): > 100 µM (inactive)
- GI50 (HT-29): > 100 µM (inactive)
- GI50 (IGROV-1): > 100 µM (inactive)
- GI50 (K562): > 100 µM (inactive)
- GI50 (KM-20L2): > 100 µM (inactive)
- GI50 (KM12): > 100 µM (inactive)
- GI50 (LOX IMVI): > 100 µM (inactive)
- GI50 (LXFL 529): 97.7 µM (inactive)
- GI50 (M14): > 100 µM (inactive)
- GI50 (M19-MEL): > 100 µM (inactive)
- GI50 (MOLT-4): > 100 µM (inactive)
- GI50 (Malme-3M): > 100 µM (inactive)
- GI50 (NCI-H226): > 100 µM (inactive)
- GI50 (NCI-H23): > 100 µM (inactive)
- GI50 (NCI-H460): > 100 µM (inactive)
- GI50 (OVCAR-3): > 100 µM (inactive)
- GI50 (OVCAR-4): 31.9 µM (inactive)
- GI50 (OVCAR-5): > 100 µM (inactive)
- GI50 (OVCAR-8): > 100 µM (inactive)
- GI50 (RPMI-8226): > 100 µM (inactive)
- GI50 (RXF 393): > 100 µM (inactive)
- GI50 (SF-268): > 100 µM (inactive)
- GI50 (SF-295): > 100 µM (inactive)
- GI50 (SF-539): > 100 µM (inactive)
- GI50 (SK-MEL-28): > 100 µM (inactive)
- GI50 (SK-MEL-2): > 100 µM (inactive)
- GI50 (SK-MEL-5): > 100 µM (inactive)
- GI50 (SK-OV-3): > 100 µM (inactive)
- GI50 (SN12C): > 100 µM (inactive)
- GI50 (SNB-19): > 100 µM (inactive)
- GI50 (SNB-75): 99.3 µM (inactive)
- GI50 (SNB-78): > 100 µM (inactive)
- GI50 (SW-620): > 100 µM (inactive)
- GI50 (TK-10): > 100 µM (inactive)
- GI50 (U-251): > 100 µM (inactive)
- GI50 (UACC-257): > 100 µM (inactive)
- GI50 (UACC-62): > 100 µM (inactive)
- GI50 (UO-31): > 100 µM (inactive)
- GI50 (XF498): > 100 µM (inactive)

Reference: ChEMBL document CHEMBL1201862, “PubChem BioAssay data set” (2004)
